Reference: PubChem BioAssay AID1996
Values after ≈ are worked out from the molar mass of the structure shown.

Settings: buffer; pH 7.4; 200.0 µM

Compound	solubility kinetic [µg/mL]
CC(C)c1ccc(NS(=O)(=O)c2ccc3c(c2)oc(=O)n3C)cc1	0.9 (≈ 2.6 µM)
O=C(O)CSc1nc2ccccc2s1	> 33.8
C=CCNC(=O)/C(=C/c1cccc([N+](=O)[O-])c1)NC(=O)c1ccco1	43.3 (≈ 127 µM)
Cc1ccc(C(=O)NCCNC(=O)c2ccc(C)o2)o1	36.1 (≈ 131 µM)
CC(=O)Nc1nnc(SCC(=O)NC2CCCC2)s1	> 45.1
CC(C)(C)[C@]1(O)CCN2C[C@H]3c4ccccc4CCc4cccc(c43)[C@@H]2C1.Cl	59.3
COCCn1c(Cc2ccccc2)nnc1SCC(=O)Nc1ccccc1	> 57.4
CCCCc1ccc(NC(=O)C(C)CC)cc1 (stereo unspecified)	6.7 (≈ 28.7 µM)
O=C(CNC(=O)c1ccc(Br)o1)NCc1cccc(Cl)c1	55.5 (≈ 149 µM)
COC(CNc1ncnc2sc(-c3ccccc3)cc12)OC	35.9 (≈ 114 µM)
COc1ccc(NS(=O)(=O)c2cc(NC(=O)c3ccc(S(=O)(=O)N(C)C)cc3)ccc2N2CCOCC2)cc1	3.2 (≈ 5.57 µM)
CN(CC(=O)Nc1ccc(S(N)(=O)=O)cc1)C1CCCCC1	> 48.8
CC(C)C(=O)Nc1ccc(S(=O)(=O)Nc2ccccn2)cc1	> 47.9
CCCc1cc(=O)oc2cc(OCC(=O)N3CCC(C(N)=O)CC3)ccc12	> 55.9
Nc1ncnc2nc[nH]c12	> 20.3
Cn1c(N)c(C(=O)COC(=O)c2ccc(C(F)(F)F)cc2)c(=O)n(C)c1=O	15.2 (≈ 39.4 µM)
COc1ccc(NC(=O)O/N=C/c2ccccc2)cc1	5 (≈ 18.5 µM)
CCN1CCN(C(=O)C2CC(=O)N(c3ccc(Cl)cc3)C2)CC1 (stereo unspecified)	> 50.4
CC12CC3(C)CC(C)(C1)CC(C(=O)NC(=S)N1CCCC1)(C2)C3	< 0.4
Cc1cccc(/C=C/c2nc3ccccc3c(=O)[nH]2)c1	0.6 (≈ 2.29 µM)
N#Cc1c(-c2ccccc2)nc(SCc2ccc([N+](=O)[O-])cc2)[nH]c1=O	52 (≈ 143 µM)
CCOC(=O)C1=C(C)N(C)C(C)=C(C(=O)OCC)C1c1ccsc1	2 (≈ 5.72 µM)
O=C(Nc1cccc(F)c1)c1c(O)c2cccc3c2n(c1=O)CCC3	< 0.4
Cc1occc1C(=O)Nc1cnn(CCCC(=O)O)c1	> 41.6

Compound	solubility kinetic [µg/mL]
CCCC(=O)NC(c1ccc(C)cc1)c1ccc2cccnc2c1O (stereo unspecified)	1.2 (≈ 3.59 µM)
COC(=O)c1ccccc1S(=O)(=O)N1CCC(C(=O)Nc2ccc(N3CCOCC3)cc2)CC1	> 73.1
Cc1ccc(CC(=O)O/N=C(\N)c2ccccn2)cc1	27.5 (≈ 102 µM)
OC(c1nc2ccccc2[nH]1)C(O)c1nc2ccccc2[nH]1 (stereo unspecified)	> 44.1
NC(=O)c1oc2ccccc2c1NC(=O)Cc1ccccc1	43.7 (≈ 148 µM)
CCOC(=O)C1CCN(c2nc(C)cc(C)c2C#N)CC1	36.9 (≈ 128 µM)
C=CCN1C(=O)C2(OCCCO2)c2cc(Cl)ccc21	33.7 (≈ 120 µM)
COc1ccc2c(ccn2S(=O)(=O)c2ccccc2)c1	1.6 (≈ 5.57 µM)
O=C(O)C1CCN(S(=O)(=O)Cc2ccccc2)CC1	33.3 (≈ 118 µM)
Cc1cc(NC(=O)CSc2nc3c(cc2C#N)CCCCC3)no1	< 0.2
COc1ccc(S(=O)(=O)N2CCCCC2)cc1NC(=O)C1CC(=O)N(Cc2ccco2)C1 (stereo unspecified)	> 69.2
CCOC(=O)C1CCCN(C(=O)CSc2nc(C)cc(C)n2)C1 (stereo unspecified)	41.5 (≈ 123 µM)
S=C(NCc1ccccc1)NC1CCCCC1	> 37.3
CC1(C)C(C(=O)O)N2C(=O)C(NC(=O)Cc3ccccc3)C2S1=O.O (stereo unspecified)	38.7
Cc1nnc(SCC(=O)NCC2CCCO2)n1Cc1ccccc1 (stereo unspecified)	> 52
COc1ccc2cc(C(C)C(=O)N3CCC(C)CC3)ccc2c1 (stereo unspecified)	18.8 (≈ 60.4 µM)
NS(=O)(=O)c1cc(C(=O)N2CCNC(=O)C2)ccc1Cl	> 47.7
O=C(N/N=C/c1ccoc1)c1ccccc1F	> 34.8
Cc1ccc(C)c(SCC(=O)NC2CCS(=O)(=O)C2)c1 (stereo unspecified)	> 47
COc1ccc(CNC(=O)COC(=O)/C=C/c2cccc(Cl)c2)cc1	3.3 (≈ 9.17 µM)
Cc1cc(Oc2ncccc2[N+](=O)[O-])c2cc(Cl)ccc2n1	< 0.2
CCc1nonc1NC(=O)c1oc2c(C)c(C)ccc2c1C	0.6 (≈ 2 µM)
O=C(O)c1c(NC(=O)N2CCOCC2)sc2c1CCCC2	> 46.6
CCC(C(=O)OCC(=O)NC(=O)NC(C)(C)C)c1ccccc1 (stereo unspecified)	2 (≈ 6.24 µM)

Compound	solubility kinetic [µg/mL]
CN1C(=O)C(C)(C)N(C(=O)c2cccc([N+](=O)[O-])c2)c2ccccc21	29.5 (≈ 86.9 µM)
O=C(Nc1ccccc1)O/N=C1/CCCc2occc21	16.6 (≈ 61.4 µM)
O=C(c1ccccc1)N1CCN(S(=O)(=O)N2CCOCC2)CC1	46 (≈ 136 µM)
COc1ccc(-n2c(O)c(C(C)=NCC3CCCO3)c(=O)[nH]c2=O)cc1 (stereo unspecified)	51.5 (≈ 143 µM)
Cc1cccc(C)c1NC(=S)N(CCN(C)C)Cc1cccs1	45.8 (≈ 132 µM)
COc1ccc(-c2nc(N)ncc2-c2ccccc2OC)c(O)c1	23.3 (≈ 72.1 µM)
Fc1ccc(N2CCN(c3cnc4ccccc4n3)CC2)cc1	1 (≈ 3.24 µM)
O=C1CCCN1CCCNC(=S)Nc1ccc(F)c(Cl)c1	> 49.5
CS(=O)(=O)N1CCC(C(=O)Nc2ccc(Cl)cc2)CC1	13.4 (≈ 42.3 µM)
O=C(NCc1ccccc1)NC(=O)c1ccccc1F	21.1 (≈ 77.5 µM)
O=C(NC1=NCCS1)c1ccccc1	21.4 (≈ 104 µM)
CCN1CCOC(CC(=O)Nc2ccc([N+](=O)[O-])cc2)C1=O (stereo unspecified)	40.2 (≈ 131 µM)
S=C(NCCc1ccccc1)Nc1ccc(N2CCCCC2)cc1	0.6 (≈ 1.77 µM)
CCNCC(=O)Nc1c(C)cccc1C	25.2 (≈ 122 µM)
COc1cccc([C@@]2(O)CCCC[C@@H]2CN(C)C)c1	> 39.5
O=C(NCCN1CCCCC1)Nc1ccc(F)cc1	37.4 (≈ 141 µM)
CCOc1ccc(C2C(C#N)=C(N)Oc3cc(C)[nH]c(=O)c32)cc1OC (stereo unspecified)	> 53
O=c1[nH]c(=S)[nH]c2nc(-c3cccs3)cc(C(F)(F)F)c12	4.8 (≈ 14.6 µM)
CCN(CC)S(=O)(=O)c1cccc(NC2=NCC(C)S2)c1 (stereo unspecified)	> 49.1
Cc1cc(C(=O)Nc2ccccc2N2CCOCC2)no1	19.2 (≈ 66.8 µM)
Cc1ccnc(Nc2nc(-c3ccc(O)cc3O)cs2)c1	2 (≈ 6.68 µM)
CCOC(=O)C1CCN(C(=S)NC(=O)c2cccs2)CC1	> 49
CC(NC(=O)c1ccccc1F)c1ccccc1 (stereo unspecified)	> 36.5
Cc1cc(SCC#N)nc2ccccc12	14.6 (≈ 68.1 µM)

Compound	solubility kinetic [µg/mL]
N#CCNC1CC(=O)N(c2ccc(F)cc2)C1=O (stereo unspecified)	29.9 (≈ 121 µM)
Cc1ccc(C(=O)Nc2c[nH]c(=O)[nH]c2=O)cc1	7.9 (≈ 32.2 µM)
CC(C)(C)C(=O)OCc1nc(-c2ccc(O)c(O)c2)cs1	39.5 (≈ 129 µM)
CN(C)C(=S)NC(C)(C)C	2.7 (≈ 16.8 µM)
Cc1ccc(NS(=O)(=O)c2ccc(NC(=O)c3ccccc3C(=O)O)cc2)c(C)c1	> 63.7
O=C(NCc1ccccn1)Nc1ccccc1F	> 36.8
O=C(NC1CCCc2ccccc21)c1ccc([N+](=O)[O-])cc1 (stereo unspecified)	3.2 (≈ 10.8 µM)
COCc1cc(=O)[nH]c(SCC(=O)N2CCOCC2)n1	> 44.9
O=C(Nc1cccc(NC(=O)C2C3CC4OC(=O)C2C4C3)c1)c1ccccc1 (stereo unspecified)	46.7 (≈ 124 µM)
Cc1ccc(C(=O)Nc2ccc(C(=O)NCC3CCCO3)cc2)cc1 (stereo unspecified)	3.5 (≈ 10.3 µM)
CCOC(=O)C1=C(COC(=O)COc2ccccc2C=O)NC(=O)NC1C (stereo unspecified)	> 56.5
Cc1cccc(C)c1NC(=O)COC(=O)/C=C/c1ccc(S(=O)(=O)N2CCOCC2)cc1	2.2 (≈ 4.8 µM)
CCOC(=O)C1CCN(Cc2cccc(Oc3ccccc3)c2)CC1	17 (≈ 50.1 µM)
COc1cc(Cl)cc(/C=C/c2ccc3cccc(O)c3n2)c1OC	< 0.7
O=C(NCc1cccnc1)c1ccc(NS(=O)(=O)c2cccc([N+](=O)[O-])c2)cc1	> 61.9
COc1ccc(-n2c(-c3ccccc3)nc3ccccc3c2=O)cc1	3.3 (≈ 10 µM)
Cc1ccc(S(=O)(=O)CCC(=O)OCc2nnc(-c3ccccc3)o2)cc1	> 58
NC(=O)c1cc(NC(=O)COC(=O)CCCN2C(=O)c3cccc4cccc(c34)C2=O)cc(C(N)=O)c1	4.9 (≈ 9.75 µM)
O=C(Cc1cccc2ccccc12)NCCOc1ccccc1F	3.7 (≈ 11.4 µM)
OC1/C(=C/c2ccc(C(F)(F)F)cc2)N2CCC1CC2 (stereo unspecified)	41.5 (≈ 146 µM)
Nc1cc(Cl)ccc1N1CCCCC1	0.6 (≈ 2.85 µM)
NS(=O)(=O)c1ccc(CCNC(=O)c2ccc(=O)[nH]c2)cc1	> 48.2
COc1ccccc1C1CCN(C(=O)c2ccc(Cl)cc2)CC1	17 (≈ 51.5 µM)
CCOC(=O)c1sc(NC(=O)c2c(CC)noc2C)nc1C	> 48.5

Compound	solubility kinetic [µg/mL]
O=C(O)C1CC=CCC1C(=O)NCCCCc1ccccc1 (stereo unspecified)	> 45.2
Cn1c(SCc2ccc(Br)cc2)nc2c(c1=O)SCC2	< 0.4
Clc1nc(CN2CCCCC2)nc2sc3c(c12)CCC3	> 46.2
Cc1cc(C(=O)N2C(C)CCCC2C)no1 (stereo unspecified)	> 33.3
Cc1ccc2nc(-c3ccc(NC(=O)COCC(=O)O)cc3)sc2c1	> 53.5
COc1c(Cl)cccc1-c1cn2ccccc2n1	2 (≈ 7.73 µM)
COc1cccc(NC(=O)CC(=O)c2ccc([N+](=O)[O-])cc2)c1	4.3 (≈ 13.7 µM)
Cc1cc(NC(=O)C2CC(=O)N(c3ccc(Cl)cc3)C2)no1 (stereo unspecified)	31 (≈ 97 µM)
COc1ccc(C2C(CN3CCOCC3)C(=O)N2c2ccccc2)cc1 (stereo unspecified)	> 52.9
O=C(Cc1cccc2ccccc12)Nc1ccccc1	1.9 (≈ 7.27 µM)
O=C(N[C@@H](Cc1ccccc1)C(=O)N1CCN(S(=O)(=O)c2ccccc2F)CC1)c1ccco1	23.7 (≈ 48.8 µM)
Cc1cc(C)c(C#N)c(SCc2ccccc2F)n1	< 0.3
O=C(CCNS(=O)(=O)c1ccccc1C(F)(F)F)NCCCN1CCOCC1	> 63.5
NC(=O)c1cccc(CS(=O)(=O)c2ccc(Cl)cc2)c1	16.4 (≈ 52.9 µM)
Cc1ccc(NC(=O)c2c(-c3ccccc3Cl)noc2C)nc1	0.3 (≈ 0.915 µM)
Cc1ccccc1C(=O)OCc1cnc(Cl)s1	1.4 (≈ 5.23 µM)
Cc1cc(-n2c(C)cc(C(=O)COc3ccc(Cl)cc3C(N)=O)c2C)no1	2.7 (≈ 6.96 µM)
CCOC(=O)N1CCN(c2ccnc3cc(Cl)ccc23)CC1	43.9 (≈ 137 µM)
O=C(COC(=O)c1ccc([N+](=O)[O-])o1)NC1CCCCC1	> 44.4
CCC(=O)Nc1ccc2c(c1)ncn2-c1ccc(C)cc1	> 41.9
